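Following 48 hours of exposure in 96-well plates, responses at five concentrations were used to interpolate endpoints linearly. The concentration for full growth arrest is given as TGI.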
What was measured:
Experiment in all cases: NCI-60 cell line screen, 48 h
786-0 renal = system: 786-0 renal
A498 renal = system: A498 renal
A549 NSCLC = system: A549 NSCLC
ACHN renal = system: ACHN renal
CAKI-1 renal = system: CAKI-1 renal
CCRF-CEM leukemia = system: CCRF-CEM leukemia
COLO 205 colon = system: COLO 205 colon
DLD-1 colon = system: DLD-1 colon
DMS 114 small cell lung = system: DMS 114 small cell lung
DMS 273 small cell lung = system: DMS 273 small cell lung
EKVX NSCLC = system: EKVX NSCLC
HCC-2998 colon = system: HCC-2998 colon
HCT-116 colon = system: HCT-116 colon
HCT-15 colon = system: HCT-15 colon
HL-60(TB) leukemia = system: HL-60(TB) leukemia
HOP-18 NSCLC = system: HOP-18 NSCLC
HOP-62 NSCLC = system: HOP-62 NSCLC
HOP-92 NSCLC = system: HOP-92 NSCLC
HT29 colon = system: HT29 colon
IGROV1 ovarian = system: IGROV1 ovarian
KM12 colon = system: KM12 colon
KM20L2 colon = system: KM20L2 colon
LOX IMVI melanoma = system: LOX IMVI melanoma
LXFL 529 NSCLC = system: LXFL 529 NSCLC
M14 melanoma = system: M14 melanoma
M19-MEL melanoma = system: M19-MEL melanoma
MALME-3M melanoma = system: MALME-3M melanoma
MOLT-4 leukemia = system: MOLT-4 leukemia
NCI-H226 lung = system: NCI-H226 lung
NCI-H460 lung = system: NCI-H460 lung
NCI-H522 lung = system: NCI-H522 lung
OVCAR-3 ovarian = system: OVCAR-3 ovarian
OVCAR-4 ovarian = system: OVCAR-4 ovarian
OVCAR-5 ovarian = system: OVCAR-5 ovarian
OVCAR-8 ovarian = system: OVCAR-8 ovarian
RPMI-8226 leukemia = system: RPMI-8226 leukemia
RXF 393 renal = system: RXF 393 renal
SF-268 CNS = system: SF-268 CNS
SF-295 CNS = system: SF-295 CNS
SF-539 CNS = system: SF-539 CNS
SK-MEL-28 melanoma = system: SK-MEL-28 melanoma
SK-MEL-5 melanoma = system: SK-MEL-5 melanoma
SK-OV-3 ovarian = system: SK-OV-3 ovarian
SN12C renal = system: SN12C renal
SNB-19 CNS = system: SNB-19 CNS
SNB-75 CNS = system: SNB-75 CNS
SNB-78 CNS = system: SNB-78 CNS
SR leukemia = system: SR leukemia
SW-620 colon = system: SW-620 colon
TK-10 renal = system: TK-10 renal
U251 CNS = system: U251 CNS
UACC-257 melanoma = system: UACC-257 melanoma
UACC-62 melanoma = system: UACC-62 melanoma
UO-31 renal = system: UO-31 renal

Measured: TGI

O=C1CC2C=CC1C2CO (centres undefined)
> 100 µM: 786-0 renal | A498 renal | A549 NSCLC | ACHN renal | CAKI-1 renal | CCRF-CEM leukemia | COLO 205 colon | DLD-1 colon | DMS 114 small cell lung | DMS 273 small cell lung | EKVX NSCLC | HCC-2998 colon | HCT-116 colon | HCT-15 colon | HL-60(TB) leukemia | HOP-18 NSCLC | HOP-62 NSCLC | HOP-92 NSCLC | HT29 colon | IGROV1 ovarian | KM12 colon | KM20L2 colon | LOX IMVI melanoma | LXFL 529 NSCLC | M14 melanoma | M19-MEL melanoma | MALME-3M melanoma | MOLT-4 leukemia | NCI-H226 lung | NCI-H460 lung | NCI-H522 lung | OVCAR-3 ovarian | OVCAR-4 ovarian | OVCAR-5 ovarian | OVCAR-8 ovarian | RPMI-8226 leukemia | RXF 393 renal | SF-268 CNS | SF-295 CNS | SF-539 CNS | SK-MEL-28 melanoma | SK-MEL-5 melanoma | SK-OV-3 ovarian | SN12C renal | SNB-19 CNS | SNB-75 CNS | SNB-78 CNS | SR leukemia | SW-620 colon | TK-10 renal | U251 CNS | UACC-257 melanoma | UACC-62 melanoma | UO-31 renal

From PubChem BioAssay (NCI)
